Experimental data: ChEMBL document CHEMBL5113473, “Synthesis and biological evaluation of new 2‑substituted‑4‑amino-quinolines and -quinazoline as potential antifungal agents” (Bioorg Med Chem Lett, 2022)
Converted amounts (≈) assume the structure as drawn. The source made the active and inactive calls. The calls are words filed in the database; no cut-off is given here.

Tests used:
Candida tropicalis = assay: Antifungal activity against Candida tropicalis ATCC 1369 assessed as reduction in fungal growth by CLSI protocol based broth microdilution method; type: functional
Aspergillus fumigatus = assay: Antifungal activity against Aspergillus fumigatus AS 3.3913 assessed as reduction in fungal growth by CLSI protocol based broth microdilution method; type: functional
Candida albicans [1] = assay: Antifungal activity against Candida albicans ATCC 10231 assessed as reduction in fungal growth by CLSI protocol based broth microdilution method; type: functional
Cryptococcus neoformans = assay: Antifungal activity against Cryptococcus neoformans ATCC 32045 assessed as reduction in fungal growth by CLSI protocol based broth microdilution method; type: functional
Candida albicans [2] = assay: Fungistatic activity against Candida albicans ATCC 10231 assessed as reduction in fungal growth at 4 times MIC incubated for 12 hrs by Time kill assay; type: functional, organism-based
Candida albicans [3] = assay: Fungistatic activity against Candida albicans ATCC 10231 assessed as reduction in fungal growth at 2 to 4 times MIC incubated for 36 hrs by Time kill assay; type: functional, organism-based; conditions: DDE = dose-dependent effect
[4] = Cytotoxicity against human HUVEC cells assessed as reduction in cell viability by CCK-8 assay; type: toxicity, cell-based
[5] = Selectivity index, ration of CC50 for cytotoxicity against human HUVEC cells to MIC for antifungal activity against Candida albicans ATCC 10231; type: toxicity, cell-based; conditions: read-out: Selectivity Index
[6] = Metabolic stability in mouse plasma assessed as parent compound remaining at 2 to 8 times; type: ADME, cell-free
Candida albicans [7] = assay: Antibiofilm activity against Candida albicans ATCC 10231 assessed as inhibition of biofilm viability by XTT reduction assay; type: functional, organism-based
Candida albicans [8] = assay: Antifungal activity against Candida albicans ATCC 10231 assessed as resistance development by measuring increase in MIC at 0.5 ug/ml after 20 passages by CLSI protocol based broth microdilution method; type: functional; conditions: dose 0.5 µg/ml
Cell membrane = assay: Induction of cell membrane damage in Candida albicans ATCC 10231 at 2 to 4 times MIC by propidium iodide staining based fluorescence assay

## Cc1ccc(Nc2cc(-c3cccnc3)nc3ccccc23)cc1.Cl
Candida tropicalis
  MIC: 256 µg/mL
Aspergillus fumigatus
  MIC: > 512 µg/mL
Candida albicans [1]
  MIC: 512 µg/mL
Cryptococcus neoformans
  MIC: > 512 µg/mL

## Cc1ccc(Nc2cc(C3CCCC3)nc3ccccc23)cc1.Cl
Candida tropicalis
  MIC: 32 µg/mL
Aspergillus fumigatus
  MIC: 16 µg/mL
Candida albicans [1]
  MIC: 64 µg/mL
Cryptococcus neoformans
  MIC: 64 µg/mL

## Cc1ccc(Nc2cc(C3CCC3)nc3ccccc23)cc1.Cl
Candida tropicalis
  MIC: 64 µg/mL
Aspergillus fumigatus
  MIC: 64 µg/mL
Candida albicans [1]
  MIC: 128 µg/mL
Cryptococcus neoformans
  MIC: 64 µg/mL

## Cc1ccc(Nc2cc(C3CCCCC3)nc3ccccc23)cc1.Cl
Candida tropicalis
  MIC: 16 µg/mL
Aspergillus fumigatus
  MIC: > 512 µg/mL
Candida albicans [1]
  MIC: 16 µg/mL
Cryptococcus neoformans
  MIC: 32 µg/mL

## COc1ccccc1-c1cc(Nc2ccc(C)cc2)c2ccccc2n1.Cl
Candida tropicalis
  MIC: 32 µg/mL
Aspergillus fumigatus
  MIC: 8 µg/mL
Candida albicans [1]
  MIC: 32 µg/mL
Cryptococcus neoformans
  MIC: 32 µg/mL

## Cc1ccc(Nc2cc(-c3ccccc3F)nc3ccccc23)cc1.Cl
Candida tropicalis
  MIC: > 512 µg/mL
Aspergillus fumigatus
  MIC: > 512 µg/mL
Candida albicans [1]
  MIC: > 512 µg/mL
Cryptococcus neoformans
  MIC: > 512 µg/mL

## Cc1ccc(Nc2cc(-c3cccc(C)c3)nc3ccccc23)cc1.Cl
Candida tropicalis
  MIC: 32 µg/mL
Aspergillus fumigatus
  MIC: 128 µg/mL
Candida albicans [1]
  MIC: 8 µg/mL
Cryptococcus neoformans
  MIC: 128 µg/mL

## Cc1ccc(Nc2cc(-c3cccc(Br)c3)nc3ccccc23)cc1.Cl
Candida tropicalis
  MIC: > 512 µg/mL
Aspergillus fumigatus
  MIC: > 512 µg/mL
Candida albicans [1]
  MIC: > 512 µg/mL
Cryptococcus neoformans
  MIC: > 512 µg/mL

## Cc1ccc(Nc2cc(C3CC3)nc3ccccc23)cc1.Cl
Candida tropicalis
  MIC: 128 µg/mL
Aspergillus fumigatus
  MIC: 512 µg/mL
Candida albicans [1]
  MIC: 128 µg/mL
Cryptococcus neoformans
  MIC: 32 µg/mL

## CCN(c1ccc(C)cc1)c1cc(-c2cccc(C)c2)nc2ccccc12
Candida tropicalis
  MIC: 512 µg/mL (≈ 1450 µM)
Aspergillus fumigatus
  MIC: 512 µg/mL (≈ 1450 µM)
Candida albicans [1]
  MIC: 512 µg/mL (≈ 1450 µM)
Cryptococcus neoformans
  MIC: 64 µg/mL (≈ 182 µM)

## COc1cccc(-c2cc(Nc3ccc(C)cc3)c3ccccc3n2)c1.Cl
Candida tropicalis
  MIC: 16 µg/mL
Aspergillus fumigatus
  MIC: 32 µg/mL
Candida albicans [1]
  MIC: 8 µg/mL
Cryptococcus neoformans
  MIC: 16 µg/mL

## Cc1ccc(Nc2cc(-c3ccccc3C)nc3ccccc23)cc1.Cl
Candida tropicalis
  MIC: 32 µg/mL
Aspergillus fumigatus
  MIC: 32 µg/mL
Candida albicans [1]
  MIC: 16 µg/mL
Cryptococcus neoformans
  MIC: 32 µg/mL

## Cc1ccc(Nc2cc(-c3ccccc3Br)nc3ccccc23)cc1.Cl
Candida tropicalis
  MIC: 128 µg/mL
Aspergillus fumigatus
  MIC: 64 µg/mL
Candida albicans [1]
  MIC: > 512 µg/mL
Cryptococcus neoformans
  MIC: 8 µg/mL

## Cc1ccc(Nc2cc(-c3ccc(C(F)(F)F)cc3)nc3ccccc23)cc1.Cl
Candida tropicalis
  MIC: > 512 µg/mL
Aspergillus fumigatus
  MIC: > 512 µg/mL
Candida albicans [1]
  MIC: > 512 µg/mL
Cryptococcus neoformans
  MIC: 16 µg/mL

## Cc1ccc(Nc2cc(-c3ccc(C)cc3)nc3ccccc23)cc1.Cl
Candida tropicalis
  MIC: 16 µg/mL
Candida albicans [2]
  Activity: Active
Candida albicans [3]
  Activity: Dde
[4]
  CC50: 36 µM
Aspergillus fumigatus
  MIC: 4 µg/mL
Candida albicans [1]
  MIC: 8 µg/mL
[5]
  selectivity ratio: 1.63
[6]
  Stability: 80%
Candida albicans [7]
  Activity: Active
Cryptococcus neoformans
  MIC: 8 µg/mL

## Cc1ccc(Nc2cc(-c3cccc(Cl)c3)nc3ccccc23)cc1.Cl
Candida tropicalis
  MIC: > 512 µg/mL
Aspergillus fumigatus
  MIC: > 512 µg/mL
Candida albicans [1]
  MIC: > 512 µg/mL
Cryptococcus neoformans
  MIC: > 512 µg/mL

## Cc1ccc(Nc2cc(-c3ccccc3C(F)(F)F)nc3ccccc23)cc1.Cl
Candida tropicalis
  MIC: 256 µg/mL
Aspergillus fumigatus
  MIC: 128 µg/mL
Candida albicans [1]
  MIC: > 512 µg/mL
Cryptococcus neoformans
  MIC: 4 µg/mL

## Cc1ccc(Nc2cc(-c3cccc(C(F)(F)F)c3)nc3ccccc23)cc1.Cl
Candida tropicalis
  MIC: 512 µg/mL
Aspergillus fumigatus
  MIC: > 512 µg/mL
Candida albicans [1]
  MIC: > 512 µg/mL
Cryptococcus neoformans
  MIC: 512 µg/mL

## Cc1ccc(Nc2cc(-c3cccs3)nc3ccccc23)cc1.Cl
Candida tropicalis
  MIC: 16 µg/mL
Aspergillus fumigatus
  MIC: 16 µg/mL
Candida albicans [1]
  MIC: 8 µg/mL
Cryptococcus neoformans
  MIC: 4 µg/mL

## CCN(c1ccc(C)cc1)c1cc(-c2ccc(C)cc2)nc2ccccc12
Candida tropicalis
  MIC: > 512 µg/mL
Aspergillus fumigatus
  MIC: 512 µg/mL (≈ 1450 µM)
Candida albicans [1]
  MIC: > 512 µg/mL
Cryptococcus neoformans
  MIC: 128 µg/mL (≈ 363 µM)

## Cc1ccc(Nc2cc(-c3ccccc3)nc3ccccc23)cc1.Cl
Candida tropicalis
  MIC: 32 µg/mL
Aspergillus fumigatus
  MIC: 64 µg/mL
Candida albicans [1]
  MIC: 32 µg/mL
Cryptococcus neoformans
  MIC: 32 µg/mL

## Cc1ccc(Nc2ccnc3ccccc23)cc1.Cl
Candida tropicalis
  MIC: 512 µg/mL
Aspergillus fumigatus
  MIC: 128 µg/mL
Candida albicans [1]
  MIC: 256 µg/mL
Cryptococcus neoformans
  MIC: 256 µg/mL

## Cc1ccc(Nc2cc(-c3ccccc3Cl)nc3ccccc23)cc1.Cl
Candida tropicalis
  MIC: 64 µg/mL
Aspergillus fumigatus
  MIC: 512 µg/mL
Candida albicans [1]
  MIC: > 512 µg/mL
Cryptococcus neoformans
  MIC: 8 µg/mL

## Cc1ccc(Nc2cc(-c3ccc4ccccc4c3)nc3ccccc23)cc1.Cl
Candida tropicalis
  MIC: 256 µg/mL
Aspergillus fumigatus
  MIC: 64 µg/mL
Candida albicans [1]
  MIC: 128 µg/mL
Cryptococcus neoformans
  MIC: 4 µg/mL

## Cc1ccc(Nc2cc(-c3ccc(C(C)(C)C)cc3)nc3ccccc23)cc1.Cl
Candida tropicalis
  MIC: 32 µg/mL
Aspergillus fumigatus
  MIC: 2 µg/mL
Candida albicans [1]
  MIC: 32 µg/mL
Cryptococcus neoformans
  MIC: 4 µg/mL

## Cc1ccc(Nc2cc(-c3ccc(F)cc3)nc3ccccc23)cc1.Cl
Candida tropicalis
  MIC: > 512 µg/mL
Aspergillus fumigatus
  MIC: > 512 µg/mL
Candida albicans [1]
  MIC: > 512 µg/mL
Cryptococcus neoformans
  MIC: > 512 µg/mL

## Cc1ccc(Nc2cc(C)nc3ccccc23)cc1.Cl
Candida tropicalis
  MIC: 256 µg/mL
Aspergillus fumigatus
  MIC: 128 µg/mL
Candida albicans [1]
  MIC: 256 µg/mL
Cryptococcus neoformans
  MIC: 256 µg/mL

## Cc1ccc(Nc2cc(-c3ccco3)nc3ccccc23)cc1.Cl
Candida tropicalis
  MIC: 16 µg/mL
Aspergillus fumigatus
  MIC: 128 µg/mL
Candida albicans [1]
  MIC: 32 µg/mL
Cryptococcus neoformans
  MIC: 32 µg/mL

## COc1ccc(-c2cc(Nc3ccc(C)cc3)c3ccccc3n2)cc1.Cl
Candida tropicalis
  MIC: 16 µg/mL
Aspergillus fumigatus
  MIC: 8 µg/mL
Candida albicans [1]
  MIC: 16 µg/mL
Cryptococcus neoformans
  MIC: 8 µg/mL

## C[C@@H]1[C@H](O)[C@@H](C)/C=C/C=C/C=C/C=C/C=C/C=C/C=C/[C@H](O[C@@H]2O[C@H](C)[C@@H](O)[C@H](N)[C@@H]2O)C[C@@H]2O[C@](O)(C[C@@H](O)C[C@@H](O)[C@H](O)CC[C@@H](O)C[C@@H](O)CC(=O)O[C@H]1C)C[C@H](O)[C@H]2C(=O)O [AMPHOTERICIN B]
Candida albicans [8]
  MIC: 128 µg/mL (≈ 139 µM)
Candida tropicalis
  MIC: 4 µg/mL (≈ 4.33 µM)
Candida albicans [3]
  Activity: Dde
[4]
  CC50: 4.92 µM
Aspergillus fumigatus
  MIC: > 512 µg/mL
Candida albicans [1]
  MIC: 1 µg/mL (≈ 1.08 µM)
[5]
  selectivity ratio: 4.55
Cell membrane
  Activity: Active
Cryptococcus neoformans
  MIC: 1 µg/mL (≈ 1.08 µM)

## Cc1ccc(Nc2nc(-c3ccccc3)nc3ccccc23)cc1.Cl
Candida tropicalis
  MIC: > 512 µg/mL
Aspergillus fumigatus
  MIC: > 512 µg/mL
Candida albicans [1]
  MIC: > 512 µg/mL
Cryptococcus neoformans
  MIC: > 512 µg/mL

## CCN(c1ccc(C)cc1)c1cc(-c2ccccc2OC)nc2ccccc12
Candida tropicalis
  MIC: 256 µg/mL (≈ 695 µM)
Aspergillus fumigatus
  MIC: 256 µg/mL (≈ 695 µM)
Candida albicans [1]
  MIC: > 512 µg/mL
Cryptococcus neoformans
  MIC: 16 µg/mL (≈ 43.4 µM)

## Cc1ccc(Nc2cc(-c3cccc(F)c3)nc3ccccc23)cc1.Cl
Candida tropicalis
  MIC: > 512 µg/mL
Aspergillus fumigatus
  MIC: > 512 µg/mL
Candida albicans [1]
  MIC: > 512 µg/mL
Cryptococcus neoformans
  MIC: > 512 µg/mL

## Cc1ccc(Nc2cc(-c3ccc(Br)cc3)nc3ccccc23)cc1.Cl
Candida tropicalis
  MIC: > 512 µg/mL
Aspergillus fumigatus
  MIC: > 512 µg/mL
Candida albicans [1]
  MIC: > 512 µg/mL
Cryptococcus neoformans
  MIC: 512 µg/mL

## Cc1ccc(Nc2cc(-c3ccc(Cl)cc3)nc3ccccc23)cc1.Cl
Candida tropicalis
  MIC: 128 µg/mL
Aspergillus fumigatus
  MIC: > 512 µg/mL
Candida albicans [1]
  MIC: 64 µg/mL
Cryptococcus neoformans
  MIC: 32 µg/mL
